Reference: ChEMBL document CHEMBL1201862, “PubChem BioAssay data set” (2004)
The source made the active and inactive calls.

Assays:
[1] = Fluorescence-based cell-based high throughput dose response assay for inhibitors of the interaction of nucleotide-binding oligomerization domain containing 2 (NOD2) and the receptor-interacting serine-threonine kinase 2 (RIPK2).; type: functional; settings: Homo sapiens
[2] = microbe, parasite or virus in culture; type: functional; settings: Mycobacterium tuberculosis
[3] = system: INS1; test: beta cell apoptosis inhibitors, cytokine rescue, dose response, luminescence, retest (AID 449756); type: functional, cell-based; settings: Rattus norvegicus;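 also: cell death triggered by IL-1 beta plus TNF-alpha plus IFN-gamma mixture; protective hits raise ATP signal compared with cytokine alone wells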
[4] = system: BJ; test: cytotoxicity toward BJ-TERT fibroblasts, dose response, cell-based, RAS-independent, luminescence (AID 1933); type: functional; settings: Homo sapiens
[5] = cytotoxicity toward DRD oncogenic fibroblasts, dose response, cell-based, non-viral oncogenic, luminescence (AID 1934); type: functional; settings: Homo sapiens
[6] = system: BJ; test: cytotoxicity toward Ras-transformed BJeLR fibroblasts, dose response, cell-based, alamar blue fluorescence, cherrypicked samples (AID 2631); type: functional; settings: Homo sapiens;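 also: confirmatory dose-response assay in RAS-dependent BJ fibroblasts engineered with TERT, LT and ST, with cytotoxicity read by fluorescence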
[7] = system: BJ; test: cytotoxicity toward BJ-TERT-LT-ST fibroblasts, dose response, cell-based, RAS-independent, luminescence (AID 1935); type: functional; settings: Homo sapiens;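 also: BJ fibroblasts immortalized with TERT plus LT and ST oncogenes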
[8] = system: BJ; test: cells; type: functional, cell-based; settings: Homo sapiens
[9] = biological target: Heat shock protein HSP 90-alpha (Homo sapiens, UniProt P07900); type: functional, organism-based
[10] = biological target: Paired box protein Pax-8 (Homo sapiens, UniProt Q06710); test: inhibitors of PAX8-driven TPO luciferase reporter, dose response, RMG-I cells, cherry-pick (AID 687027); type: functional, cell-based;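 also: luciferase reporter driven by Pax8 target thyroperoxidase promoter measured by SteadyGlo luminescence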
[11] = biological target: Protein S100-A4 (Homo sapiens, UniProt P26447); test: S100A4-myosin IIA binding inhibitor potency, dose response, biochemical, fluorescence polarization, cherry-picked hits (AID 687001); type: functional
[12] = NIH/3T3 fibroblast cytotoxicity, dose response, cytotoxicity control for T. cruzi growth inhibitor project, cell-based, cherry-pick samples, set 2 (AID 651817); type: functional; settings: NIH3T3
[13] = intracellular Trypanosoma cruzi inhibitors in host cells – cell-based, plate reader, cherry-pick samples, set 3, dose response (AID 651818); type: functional;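 also: compounds incubated with infected cells for about four days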
[14] = biological target: Large T antigen (Simian virus 40, UniProt P03070); type: functional, Betapolyomavirus macacae;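 also: Confirmatory-stage PubChem screen for compounds that inhibit SV40 T antigen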
[15] = biological target: T1, Sentrin-specific protease 1 (Homo sapiens, UniProt Q9P0U3); test: potency of human SENP1 inhibitors, dose response, biochemical, kinetic FRET (AID 651697); type: functional; settings: read-out: IC50_Mean
[16] = biological target: T1, Sentrin-specific protease 1; test: Dose response confirmation of small molecule inhibitors of the catalytic domain of the SUMO protease, SENP1 in a FRET assay.; type: functional; settings: read-out: IC50_Mean
[17] = biological target: T2, Beta-lactamase (Pseudomonas aeruginosa, UniProt Q79MP6); test: […] counterscreen for selective VIM-2 inhibitors: dose response biochemical high throughput screening assay to identify inhibitors of IMP-1 metallo-beta-lactamase.
[18] = biological target: T2, Beta-lactamase; test: IMP-1 metallo-beta-lactamase inhibitors, dose response, selectivity assay for VIM-2 inhibitor project, biochemical, epi-absorbance (AID 1920)
[19] = biological target: T3, Beta Lactamase (Pseudomonas aeruginosa, UniProt Q932Y6); test: VIM-2 inhibitor FRET-based artefact check, dose response, artefact control for selective VIM-2 inhibitor project, biochemical, FRET readout, CCF2 substrate (AID 1926)
[20] = biological target: Beta-lactamase (Salmonella choleraesuis (strain SC-B67), UniProt Q5J463); test: Epi-absorbance-based counterscreen for selective VIM-2 inhibitors: dose response biochemical high throughput screening assay to identify inhibitors of TEM-1 serine-beta-lactamase.
[21] = biological target: T3, Beta Lactamase; test: VIM-2 metallo-beta-lactamase inhibitor potency, dose response, biochemical, epi-absorbance readout, selective inhibitors (AID 1919)
[22] = biological target: T4, Genome polyprotein (Hepatitis C virus, UniProt Q2Q167); test: HCV core protein dimerization inhibitors, dose response, biochemical, TR-FRET (AID 2159); design: species or system Hepacivirus hominis;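 also: blocks dimerization of HCV core protein measured by TR-FRET between tagged core106 pairs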
T4 sequence (Q2Q167 whole entry): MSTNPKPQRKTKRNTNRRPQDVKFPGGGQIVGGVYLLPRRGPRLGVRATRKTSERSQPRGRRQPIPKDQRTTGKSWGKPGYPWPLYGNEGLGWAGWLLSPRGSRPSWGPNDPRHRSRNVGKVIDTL

[23] = biological target: T4, Genome polyprotein; test: Late stage assay provider counterscreen results for the probe development effort to identify inhibitors of Hepatitis C Virus (HCV) core protein dimerization: Luminescence-based biochemical AlphaScreen assay to identify inhibitors of HCV core dimerization.; type: functional, Hepacivirus hominis

T1 sequence (Q9P0U3 whole entry, the tested form may be a part): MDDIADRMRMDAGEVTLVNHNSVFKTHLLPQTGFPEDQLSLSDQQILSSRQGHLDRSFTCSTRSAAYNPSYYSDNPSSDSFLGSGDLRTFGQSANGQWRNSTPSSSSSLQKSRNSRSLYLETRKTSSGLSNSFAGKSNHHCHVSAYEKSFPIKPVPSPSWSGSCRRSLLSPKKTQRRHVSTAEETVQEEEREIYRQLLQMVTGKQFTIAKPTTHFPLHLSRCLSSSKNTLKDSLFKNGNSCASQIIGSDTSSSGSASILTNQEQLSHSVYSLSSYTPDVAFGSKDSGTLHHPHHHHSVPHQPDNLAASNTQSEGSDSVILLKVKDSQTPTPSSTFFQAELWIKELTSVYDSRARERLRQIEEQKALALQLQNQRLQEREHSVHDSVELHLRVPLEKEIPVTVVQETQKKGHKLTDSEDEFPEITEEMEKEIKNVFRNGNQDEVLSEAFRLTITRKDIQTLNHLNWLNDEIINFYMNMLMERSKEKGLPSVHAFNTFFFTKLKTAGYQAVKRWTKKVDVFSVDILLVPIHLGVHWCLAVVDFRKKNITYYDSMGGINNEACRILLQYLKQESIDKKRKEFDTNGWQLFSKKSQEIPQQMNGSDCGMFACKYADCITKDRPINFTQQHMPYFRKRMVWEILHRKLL
T3 sequence (Q932Y6 whole entry): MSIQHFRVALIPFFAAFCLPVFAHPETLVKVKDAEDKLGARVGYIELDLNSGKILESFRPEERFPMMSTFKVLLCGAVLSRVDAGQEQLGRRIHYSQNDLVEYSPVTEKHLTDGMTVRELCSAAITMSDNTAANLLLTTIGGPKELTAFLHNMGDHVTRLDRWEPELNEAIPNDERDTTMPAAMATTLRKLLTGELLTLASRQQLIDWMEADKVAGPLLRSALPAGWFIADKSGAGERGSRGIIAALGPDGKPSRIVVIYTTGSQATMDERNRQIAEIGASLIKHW
T2 sequence (Q79MP6 whole entry): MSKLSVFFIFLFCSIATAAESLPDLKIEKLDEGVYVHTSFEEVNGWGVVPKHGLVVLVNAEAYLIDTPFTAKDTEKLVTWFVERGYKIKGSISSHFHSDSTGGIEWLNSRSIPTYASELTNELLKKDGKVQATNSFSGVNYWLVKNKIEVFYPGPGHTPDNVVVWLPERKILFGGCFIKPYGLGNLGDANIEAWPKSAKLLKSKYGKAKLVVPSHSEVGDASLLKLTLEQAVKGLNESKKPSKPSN
Beta-lactamase (Salmonella choleraesuis (strain SC-B67), UniProt Q5J463), sequence (Q5J463 whole entry): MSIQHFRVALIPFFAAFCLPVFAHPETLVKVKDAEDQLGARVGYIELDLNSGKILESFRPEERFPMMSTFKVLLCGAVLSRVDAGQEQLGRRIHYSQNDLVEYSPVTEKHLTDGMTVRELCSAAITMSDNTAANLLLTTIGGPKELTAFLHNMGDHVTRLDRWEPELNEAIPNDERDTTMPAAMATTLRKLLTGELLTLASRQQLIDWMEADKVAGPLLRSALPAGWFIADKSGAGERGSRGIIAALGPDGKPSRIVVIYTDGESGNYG
Protein S100-A4, sequence (P26447 whole entry): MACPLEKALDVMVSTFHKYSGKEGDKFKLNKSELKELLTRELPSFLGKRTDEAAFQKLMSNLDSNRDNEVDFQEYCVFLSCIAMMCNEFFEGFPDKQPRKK
Large T antigen, sequence (P03070 whole entry): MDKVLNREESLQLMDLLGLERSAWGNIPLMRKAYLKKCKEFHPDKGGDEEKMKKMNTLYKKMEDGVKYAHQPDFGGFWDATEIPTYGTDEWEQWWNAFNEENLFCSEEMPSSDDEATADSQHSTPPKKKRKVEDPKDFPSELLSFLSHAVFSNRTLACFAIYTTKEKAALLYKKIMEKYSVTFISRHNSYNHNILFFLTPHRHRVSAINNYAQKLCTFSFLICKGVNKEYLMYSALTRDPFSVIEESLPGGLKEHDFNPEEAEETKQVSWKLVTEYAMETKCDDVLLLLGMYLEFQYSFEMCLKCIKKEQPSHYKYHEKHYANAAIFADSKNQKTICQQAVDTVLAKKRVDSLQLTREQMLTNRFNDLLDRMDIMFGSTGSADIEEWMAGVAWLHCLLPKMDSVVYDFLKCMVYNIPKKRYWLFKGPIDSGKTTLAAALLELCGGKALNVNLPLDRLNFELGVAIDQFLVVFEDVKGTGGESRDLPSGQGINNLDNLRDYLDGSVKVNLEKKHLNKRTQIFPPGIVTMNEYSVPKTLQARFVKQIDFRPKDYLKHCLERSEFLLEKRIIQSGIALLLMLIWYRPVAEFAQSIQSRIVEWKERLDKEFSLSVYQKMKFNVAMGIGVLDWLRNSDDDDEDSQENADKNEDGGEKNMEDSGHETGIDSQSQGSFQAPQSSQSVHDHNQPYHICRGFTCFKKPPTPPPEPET
Paired box protein Pax-8, sequence (Q06710 whole entry): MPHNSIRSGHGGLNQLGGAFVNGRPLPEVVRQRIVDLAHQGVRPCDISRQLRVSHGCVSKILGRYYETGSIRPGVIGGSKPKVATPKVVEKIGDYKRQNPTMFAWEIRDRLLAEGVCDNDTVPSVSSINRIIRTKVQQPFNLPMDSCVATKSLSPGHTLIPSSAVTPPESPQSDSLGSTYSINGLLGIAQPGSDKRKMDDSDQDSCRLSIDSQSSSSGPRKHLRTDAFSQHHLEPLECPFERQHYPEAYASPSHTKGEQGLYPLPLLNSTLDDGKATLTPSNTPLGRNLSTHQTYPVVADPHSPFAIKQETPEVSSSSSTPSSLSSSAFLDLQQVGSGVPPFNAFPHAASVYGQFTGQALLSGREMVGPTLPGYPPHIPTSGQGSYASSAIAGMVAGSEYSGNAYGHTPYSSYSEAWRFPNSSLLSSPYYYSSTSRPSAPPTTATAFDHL

With `CCOc1cc(/C=C2\COc3ccccc3C2=O)cc(Br)c1OCC(=O)N(C)C` the IC50 [1] was 6.43 µM (active), the CC50 [2] was 15.2 µM (active) and the AC50 [3] was 7.22 µM (active). For the same compound, the EC50 [4] was 5.54 µM (inconclusive), the EC50 [5] was 5.72 µM (active) and the EC50 [6] was 2.12 µM (active). For the same compound, the EC50 [7] was 16.4 µM (active) and the EC50 [8] was 8.64 µM (active).

For `COc1cccc2c1C(=O)c1c(O)c3c(c(O)c1C2=O)CC(O)(C(=O)CO)CC3OC1CC(N(C)C)C(O)C(C)O1` (stereo not drawn), the AC50 [9] was 0.296 µM (active), the AC50 [10] was 0.833 µM (active) and the AC50 [11] was 0.257 µM (active).

With `Cc1ccc(S(=O)(=O)N(C)C[C@H]2Oc3ccc(NS(=O)(=O)c4ccc(Cl)cc4)cc3CC(=O)N([C@H](C)CO)C[C@H]2C)cc1` the AC50 [12] was 39 µM (inactive) and the AC50 [13] was 2.35 µM (active).

For `COc1cc(SC#N)ccc1/N=C/c1c(C)[nH]n(-c2ccc(C)cc2C)c1=O`, the IC50 [14] was 7.19 µM (active), the IC50 [15] was 24.8 µM (inactive) and the IC50 [16] was 15 µM (active).

With `O=[N+]([O-])c1ccccc1/C=N/n1c(S)nnc1C(F)(F)F` the IC50 [17] was > 59.6 µM (inactive), the IC50 [18] was > 59.6 µM (inactive) and the IC50 [19] was 3.12 µM (active). The IC50 [20] was > 59.6 µM (inactive) and the IC50 [21] was 9.33 µM (active).

With `CC1=C(/C=C/C(C)=C/C=C/C(C)=C/C=C/C=C(C)/C=C/C=C(C)/C=C/C2=C(C)CCCC2(C)C)C(C)(C)CCC1` [BETA CAROTENE] the IC50 [22] was 29.7 µM (not active) and the IC50 [23] was 34.8 µM (inactive).
